This is an account of results in patent publication EP0099766A1, “1-3-Dihydro 4-(1-hydroxy-2-amino-ethyl)-2H-indol-2-one derivatives, their salts, process for their preparation, their use as medicines and compositions containing them” (ROUSSEL-UCLAF, priority 1982, dated 1984).

Where only a bound is given, the exact number is not on record here.

Data set [1] has as its system souris. To be noted: mouse, in vivo, po, 11520 min. The text has this: On a évalué les doses létales DLO des différents composés testés après administration par voie orale chez la souris.
On appelle DLO la dose maximale ne provoquant aucune mortalité en 8 jours.

For data set [2], the system named is rats mâles Sprague-Dawley. As to the kind of experiment: Anti-ulcer activity: Shay method modified by Guth (pylorus ligation plus aspirin/HCl gastric lesions). Type of data set: in vivo. To be noted: dose 0,4 mg/kg per os one hour before pylorus ligation; aspirin 200 mg/kg per os; Sprague-Dawley rat; mean ulcer score. How it is done:
L'essai est effectué selon la méthode de Shay modifiée par GUTH (GUTH, P.H. et coll, Topical aspirin plus HCl gastric lesions in the rat. Gastroenterology 1979,76, 88-93.) Des rats mâles Sprague-Dawley d'un poids voisin de 250 g, à jeun depuis 48 heures sauf boisson, ont été utilisés. On pratique sous légère anesthésie à l'halothane, la ligature du pylore et une . heure plus tard, on administre l'aspirine per os à la dose de 200 mg/kg, en suspension dans la carboxyméthylcellulose à 0,25% renfermant 15% d'acide chlorhydrique N. Deux heures plus tard, on sacrifie les animaux, prélève et examine les estomacs. Chaque lésion ulcéreuse est cotée de la façon suivante :
La somme des cotations est calculée pour chaque estomac, et le score moyen est établi.pour chaque lot.
Les substances à étudier sont administrées per os une heure avant la ligature.

The test system of data set [3] is oédème plantaire provoqué par la carraghénine chez le rat. As to the kind of experiment: Anti-inflammatory activity: carrageenan-induced plantar oedema. It counts as in vivo. Conditions: dose 0,4 mg/kg oral, given simultaneously with carrageenan; rat paw volume versus controls. From the text: L'activité anti-inflammatoire a été déterminée sur le test de l'oédème plantaire provoqué par la carraghénine chez le rat.
On administre, à des rats mâles pesant de 130 à 150 g, 0,05 cm3 d'une suspension stérile à 1% de carraghénine dans l'articulation tibio-tarsienne d'une patte postérieure.
Simultanément, on administre le produit à étudier dans une suspension de carboxyméthylcellulose à 0,25% et de Tween à 0,02% par voie orale.
Le volume de la patte est mesuré avant l'administration, puis 2 heures, 4 heures, 6 heures, 8 heures et 24 heures après.
L'intensité de l'inflammation est maxima 4 à 6 heures après l'injection de carraghénine. La différence du volume des pattes des animaux traités et des témoins met en évidence l'action anti inflammatoire du médicament.
In general terms: Carrageenan injected into the paw causes an acute inflammation.

In data set [1], `CNCC(O)c1cccc2c1CC(=O)N2` (stereo not shown) [compound 3, 1,3-dihydro 4-(1-hydroxy 2-(méthylamino)éthyl) 2H-indol-2-one] displayed a DL0 of more than 400 mg/kg.

The compound `CCNCC(O)c1cccc2c1CC(=O)N2` (stereo not shown) [compound 7, Chlorhydratede 1,3-dugtdri 4-/(1-hydroxy 2-éthyl-amino) éthyl/ 2H-indol-2-one] gave a DL0 in data set [1] of more than 400 mg/kg.

On to `CCCNCC(O)c1cccc2c1CC(=O)N2` (stereo not shown) [exemple 2, 1,3-dihydro 4-/1-hydroxy 2-(propylamino)éthyl/ 2H-indol-2-one], for which the “protège les animaux traités (activité antiulcéreuse)” value in data set [2] is listed as 60%. Besides, in data set [1], the DL0 is 200 mg/kg.

In data set [1], `O=C1Cc2c(cccc2C(O)CNCC2CC2)N1` (stereo not shown) [exemple 5, Chlorhydratede 1,3-dihydro 4-/1-hydroxy 2-(cyclo-propylméthylamino) éthyl/ 2H-indol-2-one] had a DL0 of 200 mg/kg.

Take `CC(C)NCC(O)c1cccc2c1CC(=O)N2` (stereo not shown) [exemple 1, 1,3-dihydro 4-/2-(1-méthyléthylamino) 1-hydroxy éthyl/ 2H-indol-2-one]: the “protège les animaux traités (activité anti-inflammatoire)” value in data set [3] is given as 61%. In addition, in data set [1], the DL0 came to 200 mg/kg.
